The values below come from US20200278355A1, “CONJUGATED PROTEINS AND USES THEREOF” (THE SCRIPPS RESEARCH INSTITUTE, priority 2017, published 2020).

One test deals with T1, RBM45-NR0B1 interaction (Homo sapiens, UniProt P51843).
T1 construct: endogenous in cells; host or cells: H460 cells (also H2122 and A549) stably expressing FLAG-RBM45 by lentiviral transduction (FLAG-pLJM1)
T1 sequence (P51843 1-470): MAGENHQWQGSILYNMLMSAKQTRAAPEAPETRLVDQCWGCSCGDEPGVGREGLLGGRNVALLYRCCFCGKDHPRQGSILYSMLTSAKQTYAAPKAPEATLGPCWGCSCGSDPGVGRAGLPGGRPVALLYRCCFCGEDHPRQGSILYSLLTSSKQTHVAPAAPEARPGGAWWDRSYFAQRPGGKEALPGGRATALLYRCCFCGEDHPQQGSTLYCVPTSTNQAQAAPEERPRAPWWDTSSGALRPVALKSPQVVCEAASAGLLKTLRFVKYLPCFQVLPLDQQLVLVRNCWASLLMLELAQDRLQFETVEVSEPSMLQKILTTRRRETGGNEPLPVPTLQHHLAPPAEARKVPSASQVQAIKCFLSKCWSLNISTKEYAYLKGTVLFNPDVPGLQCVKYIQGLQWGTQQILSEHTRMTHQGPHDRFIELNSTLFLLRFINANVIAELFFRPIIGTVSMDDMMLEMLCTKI
The experiment in a line: RBM45-NR0B1 interaction in NSCLC cells stably expressing FLAG-RBM45 (FLAG immunoprecipitation). The conditions noted are these: 3 h; for blockade of the RBM45-NR0B1 interaction: H460 cells; for blockade of NR0B1 binding to FLAG-RBM45: H2122 and A549 cells. Type of test: cell-based. Here is the method: FIG. 6A-FIG. 6F show characterization of NR0B1 ligands in KEAP1-mutant NSCLC cells. […] Dashed lines designate R values≥3 (DMSO/compound), which was used as a cutoff to define cysteines liganded by the indicated compounds. Insets show MS1 profiles for C274 in NR0B1 for DMSO (blue) versus compound (red) treatment. Data are from individual experiments representative of at least three biological replicates. […] (See also Table 5). […] H460 cells stably expressing FLAG-RBM45 were incubated with indicated compounds for 3 h, whereupon FLAG immunoprecipitates were performed and analyzed by immunoblotting. […] Experiments performed as described in (C). […] Dashed line designates R values (light/heavy) of <8, which was used as a cutoff for fast-turnover proteins. […] Charts comparing fraction of NRF2-regulated genes (as determined by RNAseq) for which the corresponding proteins are designated as fast or slow turnover (as determined in G) further divided into groups showing reduced expression (left) or not (right) on day 1 following NRF2 knockdown (as determined by isoTOP-ABPP).
FIG. 12A-FIG. 12G show characterization of NR0B1 ligands in Keap1-mutant NSCLC cells. […] Data obtained from isoTOP-ABPP experiments of H460 cells treated with compound (red traces) or DMSO (blue traces) for 3 h. […] Shown are MS1 profiles for quantified cysteines in NR0B1 following treatment with BPK-29 (40 μM, red; top) BPK-26 (40 μM, red; bottom) or DMSO (blue) for 3 h. […] KEAP1-null HEK293T cells stably expressing FLAG-RBM45 or FLAG-SNW1 were incubated with the indicated compounds for 3 h, after which FLAG immunoprecipitates were prepared from cell lysates. Immunoprecipitates and lysates were analyzed by immunoblotting for the indicated proteins. Dashed lines represent a lane that was cropped from this immunoblot. […] H2122 or A549 cells stably expressing FLAG-RBM45 were incubated with the indicated compounds for 3 h, after which FLAG immunoprecipitates were prepared. Immunoprecipitates and lysates were analyzed as described in (E). […] H2122 cells stably expressing FLAG-RBM45 or A549 cells stably expressing FLAG-SNW1 were incubated with indicated compounds for 3 h and FLAG immunoprecipitates were prepared and analyzed as described in (E).
Confluent 10 cm plates of indicated cell lines were rinsed once with warm PBS and incubated in serum/dye-free RPMI with indicated compounds or vehicle for 3 h at 37° C. Cells were washed once ice-cold PBS and snap frozen.
Cells were rinsed once with ice-cold PBS, and lysed by sonication in Triton IP buffer. Lysates were clarified by centrifugation at 16,000×g for 10 min. […] Proteins were resolved by SDS-PAGE, analyzed by immunoblotting and relative band intensities were quantified using ImageJ software.

Another test relates to KEAP1-mutant NSCLC cells. Nature of the test: Colony formation in soft agar, KEAP1-mutant NSCLC cells. Type of test: cell-based, human. As to conditions: 5 μM. The source says:
Based on its in situ activity (FIG. 6D and FIG. 12A, 12G) and selectivity (FIGS. 6A, 6B), BPK-29 was chosen for additional biological studies. […] Exogenous expression of […] the growth inhibition caused by BPK-29.

SMILES strings stand for the structures.

Take `O=C(CCl)N(Cc1cccc(Cl)c1F)c1ccc(Cl)nc1` [BPK-26, 2-chloro-N-(3-chloro-2-fluorobenzyl)-N-(6-chloropyridin-3-yl)acetamide]: on RBM45-NR0B1 interaction, the “blockade of the RBM45-NR0B1 interaction” value was “block” and the “blockade of NR0B1 binding to FLAG-RBM45” value was “block”.
Consider `O=C(c1ccc(N2CCOCC2)cc1)N1CCC(CN(C(=O)CCl)c2cncnc2)CC1` [BPK-9, 2-chloro-N-((1-(4-morpholinobenzoyl)piperidin-4-yl)methyl)-N-(pyrimidin-5-yl)acetamide], for which the “colony formation in soft agar” value with KEAP1-mutant NSCLC cells was “much less of an effect”.
Take `O=C(c1ccc(N2CCOCC2)cc1)N1CCCC(N(Cc2ccccc2)C(=O)CCl)CC1` (stereo not drawn) [BPK-29, N-benzyl-2-chloro-N-(1-(4-morpholinobenzoyl)azepan-4-yl)acetamide]: at RBM45-NR0B1 interaction, the “blockade of the RBM45-NR0B1 interaction” value is “block” and the “blockade of NR0B1 binding to FLAG-RBM45” value is given as “block”. Moreover, in the test on KEAP1-mutant NSCLC cells, the “colony formation in soft agar” value was “blocked colony formation”.
